Source: ChEMBL document CHEMBL1144507, “Synthesis and antifungal activity of (Z)-5-arylidenerhodanines” (2007)
In brackets after ≈: the same amount, converted by molar mass.

How the values were obtained:
[1] = tested on: Trichophyton rubrum; assay: Antifungal activity against Trichophyton rubrum C113 after 48 hrs; format: functional
[2] = tested on: Trichophyton benhamiae; assay: Antifungal activity against Trichophyton mentagrophytes ATCC 9972 after 48 hrs; format: functional, Arthroderma benhamiae; conditions: ATCC 9972, 48 h
[3] = tested on: Aspergillus niger; assay: Antifungal activity against Aspergillus niger ATCC 9029 after 48 hrs; format: functional; conditions: ATCC 9029, 48 h
[4] = tested on: Cryptococcus neoformans; assay: Antifungal activity against Cryptococcus neoformans ATCC 32264 after 48 hrs; format: functional; conditions: ATCC 32264, 48 h
[5] = tested on: Aspergillus flavus; assay: Antifungal activity against Aspergillus flavus ATCC 9170 after 48 hrs; format: functional; conditions: ATCC 9170, 48 h
[6] = tested on: Aspergillus fumigatus; assay: Antifungal activity against Aspergillus fumigatus ATCC 26934 after 48 hrs; format: functional; conditions: ATCC 26934, 48 h
[7] = tested on: Nannizzia gypsea; assay: Antifungal activity against Microsporum gypseum C115 after 48 hrs; format: functional
[8] = tested on: Candida albicans; assay: Antifungal activity against Candida albicans ATCC 10231 after 48 hrs; format: functional; conditions: ATCC 10231, 48 h
[9] = tested on: Saccharomyces cerevisiae; assay: Antifungal activity against Saccharomyces cerevisiae ATCC 9763 after 48 hrs; format: functional; conditions: ATCC 9763, 48 h
[10] = tested on: Cryptococcus neoformans; assay: Antifungal activity against […] IM 031706 after 48 hrs; format: functional
[11] = tested on: Kluyveromyces marxianus; assay: Antifungal activity against Candida kefyr C123-2000 after 48 hrs; format: functional
[12] = tested on: Cryptococcus neoformans; assay: Antifungal activity against […] IM 00319 after 48 hrs; format: functional
[13] = tested on: Cryptococcus neoformans; assay: Antifungal activity against […] IM 972751 after 48 hrs; format: functional
[14] = tested on: Candida albicans; assay: Antifungal activity against Candida albicans C127-2000 after 48 hrs; format: functional
[15] = tested on: Cryptococcus neoformans; assay: Antifungal activity against […] IM 042074 after 48 hrs; format: functional
[16] = tested on: Cryptococcus neoformans; assay: Antifungal activity against […] IM 983036 after 48 hrs; format: functional
[17] = tested on: Cryptococcus neoformans; assay: Antifungal activity against […] IM 972724 after 48 hrs; format: functional
[18] = tested on: Nakaseomyces glabratus; assay: Antifungal activity against Candida glabrata C115-2000 after 48 hrs; format: functional
[19] = tested on: Cryptococcus neoformans; assay: Antifungal activity against […] IM 961951 after 48 hrs; format: functional
[20] = tested on: Candida parapsilosis; assay: Antifungal activity against Candida parapsilosis C124-2000 after 48 hrs; format: functional; conditions: Lodderomyces parapsilosis
[21] = tested on: Candida albicans; assay: Antifungal activity against Candida albicans C126-2000 after 48 hrs; format: functional
[22] = tested on: Clavispora lusitaniae; assay: Antifungal activity against Candida lusitaniae C131-2000 after 48 hrs; format: functional
[23] = tested on: Candida tropicalis; assay: Antifungal activity against Candida tropicalis C131-1997 after 48 hrs; format: functional
[24] = tested on: Candida albicans; assay: Antifungal activity against Candida albicans C125-2000 after 48 hrs; format: functional
[25] = tested on: Candida albicans; assay: Antifungal activity against Candida albicans C130-2000 after 48 hrs; format: functional
[26] = tested on: Pichia kudriavzevii; assay: Antifungal activity against Candida krusei C117-2000 after 48 hrs; format: functional
[27] = tested on: Torulaspora delbrueckii; assay: Antifungal activity against Candida coliculosa C122-2000 after 48 hrs; format: functional
[28] = tested on: Cryptococcus neoformans; assay: Antifungal activity against […] ATCC 32264 after 48 hrs; format: functional; conditions: ATCC 32264, 48 h
[29] = tested on: Cryptococcus neoformans; assay: Antifungal activity against […] IM 031631 after 48 hrs; format: functional
[30] = tested on: Cryptococcus neoformans; assay: Antifungal activity against Candida neoformans IM 983040 after 48 hrs; format: functional
[31] = tested on: Candida albicans; assay: Antifungal activity against Candida albicans C128-2000 after 48 hrs; format: functional
[32] = tested on: Cryptococcus neoformans; assay: Antifungal activity against […] IM 052470 after 48 hrs; format: functional
[33] = Cryptococcus neoformans, 48 h, read-out: MFC

SMILES | MIC [1] | MIC [2] | MIC [3] | MIC [4] | MIC [5] | MIC [6] | MIC [7] | MIC [8] | MIC [9] | MFC [10] | MFC [13] | MFC [15] | MFC [16] | MFC [17] | MFC [19] | MFC [30] | MFC [32] | also measured
O=C1NC(=S)S/C1=C\c1ccc(Cl)cc1 | 62.5 µg/mL (≈ 244 µM) | 62.5 µg/mL (≈ 244 µM) | 250 µg/mL (≈ 978 µM) | 15.6 µg/mL (≈ 61 µM) | 125 µg/mL (≈ 489 µM) | 125 µg/mL (≈ 489 µM) | 62.5 µg/mL (≈ 244 µM) | 250 µg/mL (≈ 978 µM) | 250 µg/mL (≈ 978 µM) | – | – | – | – | – | – | – | – | –
O=C1NC(=S)S/C1=C\c1ccc2c(c1)OCO2 | > 250 µg/mL | > 250 µg/mL | > 250 µg/mL | > 250 µg/mL | > 250 µg/mL | > 250 µg/mL | > 250 µg/mL | > 250 µg/mL | > 250 µg/mL | – | – | – | – | – | – | – | – | –
O=C1NC(=S)S/C1=C\[n+]1ccccc1 | > 250 µg/mL | > 250 µg/mL | > 250 µg/mL | > 250 µg/mL | > 250 µg/mL | > 250 µg/mL | > 250 µg/mL | > 250 µg/mL | > 250 µg/mL | – | – | – | – | – | – | – | – | –
O=C1NC(=S)S/C1=C\c1ccc(Br)cc1 | > 250 µg/mL | > 250 µg/mL | > 250 µg/mL | 62.5 µg/mL (≈ 208 µM) | > 250 µg/mL | > 250 µg/mL | > 250 µg/mL | > 250 µg/mL | 250 µg/mL (≈ 833 µM) | – | – | – | – | – | – | – | – | –
COc1ccc(/C=C2\SC(=S)NC2=O)cc1 | > 250 µg/mL | > 250 µg/mL | > 250 µg/mL | > 250 µg/mL | > 250 µg/mL | > 250 µg/mL | > 250 µg/mL | > 250 µg/mL | > 250 µg/mL | – | – | – | – | – | – | – | – | –
COc1ccc(/C=C2\SC(=S)NC2=O)c(OC)c1OC | > 250 µg/mL | > 250 µg/mL | > 250 µg/mL | > 250 µg/mL | > 250 µg/mL | > 250 µg/mL | > 250 µg/mL | > 250 µg/mL | > 250 µg/mL | – | – | – | – | – | – | – | – | –
O=C1NC(=S)S/C1=C\c1ccccc1F | 3.9 µg/mL (≈ 16.3 µM) | 3.9 µg/mL (≈ 16.3 µM) | > 250 µg/mL | 15.6 µg/mL (≈ 65.2 µM) | > 250 µg/mL | > 250 µg/mL | 3.9 µg/mL (≈ 16.3 µM) | 250 µg/mL (≈ 1040 µM) | 250 µg/mL (≈ 1040 µM) | – | – | – | – | – | – | – | – | –
C[C@@H]1[C@H](O)[C@@H](C)/C=C/C=C/C=C/C=C/C=C/C=C/C=C/[C@H](O[C@@H]2O[C@H](C)[C@@H](O)[C@H](N)[C@@H]2O)C[C@@H]2O[C@](O)(C[C@@H](O)C[C@@H](O)[C@H](O)CC[C@@H](O)C[C@@H](O)CC(=O)O[C@H]1C)C[C@H](O)[C@H]2C(=O)O [AMPHOTERICIN B] | – | – | – | – | – | – | – | – | – | 0.25 µg/mL (≈ 0.271 µM) | 0.25 µg/mL (≈ 0.271 µM) | 0.25 µg/mL (≈ 0.271 µM) | 0.13 µg/mL (≈ 0.141 µM) | 0.06 µg/mL (≈ 0.0649 µM) | 0.06 µg/mL (≈ 0.0649 µM) | 0.13 µg/mL (≈ 0.141 µM) | 0.5 µg/mL (≈ 0.541 µM) | MFC [11]: 0.78 µg/mL (≈ 0.844 µM); MFC [12]: 0.25 µg/mL (≈ 0.271 µM); MFC [14]: 0.78 µg/mL (≈ 0.844 µM); MFC [18]: 0.39 µg/mL (≈ 0.422 µM); MFC [20]: 0.78 µg/mL (≈ 0.844 µM); MFC [21]: 1.56 µg/mL (≈ 1.69 µM); MFC [22]: 0.39 µg/mL (≈ 0.422 µM); MFC [23]: 0.5 µg/mL (≈ 0.541 µM); MFC [24]: 0.78 µg/mL (≈ 0.844 µM); MFC [25]: 0.78 µg/mL (≈ 0.844 µM); MFC [26]: 0.39 µg/mL (≈ 0.422 µM); MFC [27]: 0.36 µg/mL (≈ 0.39 µM); MFC [28]: 0.25 µg/mL (≈ 0.271 µM); MFC [29, 33]: 0.13 µg/mL (≈ 0.141 µM); MFC [31]: 1.56 µg/mL (≈ 1.69 µM)
Nc1nc(=O)[nH]cc1F [FLUCYTOSINE] | – | – | – | – | – | – | – | – | – | 7.8 µg/mL (≈ 60.4 µM) | 15.6 µg/mL (≈ 121 µM) | 3.9 µg/mL (≈ 30.2 µM) | 7.8 µg/mL (≈ 60.4 µM) | 3.9 µg/mL (≈ 30.2 µM) | 3.9 µg/mL (≈ 30.2 µM) | 7.8 µg/mL (≈ 60.4 µM) | 7.8 µg/mL (≈ 60.4 µM) | MFC [29, 33]: 7.8 µg/mL (≈ 60.4 µM)
CCC(C)n1ncn(-c2ccc(N3CCN(c4ccc(OCC5COC(Cn6cncn6)(c6ccc(Cl)cc6Cl)O5)cc4)CC3)cc2)c1=O (centres undefined) [ITRACONAZOLE] | – | – | – | – | – | – | – | – | – | 0.5 µg/mL (≈ 0.709 µM) | < 0.015 µg/mL | < 0.015 µg/mL | < 0.015 µg/mL | 0.25 µg/mL (≈ 0.354 µM) | < 0.015 µg/mL | < 0.015 µg/mL | < 0.015 µg/mL | MFC [12]: < 0.015 µg/mL; MFC [28]: 0.15 µg/mL (≈ 0.213 µM); MFC [29, 33]: 0.25 µg/mL (≈ 0.354 µM)
CC(=O)N1CCN(c2ccc(OCC3COC(Cn4ccnc4)(c4ccc(Cl)cc4Cl)O3)cc2)CC1 (centres undefined) [KETOCONAZOLE] | – | – | – | – | – | – | – | – | – | – | – | – | – | – | – | – | – | MFC [11]: 0.78 µg/mL (≈ 1.47 µM); MFC [14]: 6.25 µg/mL (≈ 11.8 µM); MFC [18]: 1.56 µg/mL (≈ 2.94 µM); MFC [20]: 0.78 µg/mL (≈ 1.47 µM); MFC [21]: 1.56 µg/mL (≈ 2.94 µM); MFC [22]: 25 µg/mL (≈ 47 µM); MFC [23]: 0.125 µg/mL (≈ 0.235 µM); MFC [24]: 6.25 µg/mL (≈ 11.8 µM); MFC [25]: 6.25 µg/mL (≈ 11.8 µM); MFC [26]: 50 µg/mL (≈ 94.1 µM); MFC [27]: 0.78 µg/mL (≈ 1.47 µM); MFC [28]: 0.25 µg/mL (≈ 0.47 µM); MFC [31]: 6.25 µg/mL (≈ 11.8 µM)
C[C@@H](c1ncncc1F)[C@](O)(Cn1cncn1)c1ccc(F)cc1F [VORICONAZOLE] | – | – | – | – | – | – | – | – | – | 0.5 µg/mL (≈ 1.43 µM) | 0.03 µg/mL (≈ 0.0859 µM) | < 0.015 µg/mL | < 0.015 µg/mL | < 0.015 µg/mL | 0.015 µg/mL (≈ 0.0429 µM) | < 0.015 µg/mL | 0.03 µg/mL (≈ 0.0859 µM) | MFC [12]: < 0.015 µg/mL; MFC [29]: 0.25
